SMILES strings stand for the structures. Where a SMILES comes first, the peptide text is derived from it. [ ]: non-standard residue; d: D form. Nle = CCCC[C@H](N)C(=O)O

Here are results for two compounds from patent US4737487A, “VIP type peptides” (Beecham Group p.l.c., priority 1984, dated 1988).

For experiment [1], the system named is proximal duodenum acid disposal capacity. In words: Acid disposal capacity of the rat proximal duodenum (anti-ulcer activity). Format: in vivo. Conditions: significance P<0.05. The protocol: Anti-ulcer activity may be related to the enhanced capacity to dispose of gastric acid. Acid disposal capacity may be enhanced by increased intestinal secretions and enhanced acid disposal capacity is believed to be useful in the treatment of peptic ulcer disease. Method for estimating the acid disposal capacity of the rat proximal duodenum Male Wistar rats, 180-250 g bodyweight, fasted overnight, are anaesthetized with urethane (150 mg/100 g bodyweight i.m.). The trachea is cannulated, and a gastric cannula, 0.5 cm i.d., 3 cm long, is inserted into the non-glandular forestomach via a mid-line abdominal incision. The intragastric cannula is exteriorized via a stab wound in the body wall. A triple lumen catheter, 0.3 cm o.d., is passed via the gastric cannula through the pylorus. The duodenum is ligated 1 cm below the pylorus, and the pylorus ligated around the cannula, thus creating a 1 cm proximal duodenal pouch excluding pancreatic and biliary secretions. The two ligatures enclosing the duodenal pouch are placed so as to avoid occluding the blood supply to the duodenal segment. Gastric secretions are allowed to drain freely from the gastric cannula. […] Outflow pH is recorded throughout the experiment. […] A group size of 6 animals or larger is used and the effect of compounds on the output pH compared to control data determined. […]

Experiment [2] deals with spontaneous motility of proximal colon. In words: Colonic motility in vivo: intraluminal pressure recording in anaesthetised rat. Conditions: urethane-anaesthetised male Wistar rats; intravenous administration; 3 μmol/kg. The method, then:
Male albino rats, Wistar strain (Charles River UK) 300-500 g were anaesthetised with urethane. A segment of proximal colon was prepared for intraluminal pressure recording after the method of Maggi and Meli (Maggi, C. A. and Meli, A. (1982), J. Pharmacol. Methods 8, 39-46). The activity of the compound (V) was assessed from its action on the spontaneous motility of the preparation after intravenous administration.

For experiment [3], the system named is spontaneous contractile responses of circular muscle from the proximal colon. Briefly: Colonic motility in vitro: isolated circular muscle of rat proximal colon. The experiment is classed as cell-based. The conditions noted are these: rat proximal colon circular muscle in Krebs solution, isolated tissue bath. The method, then: Segments of circular muscle cut from the proximal colon of rats were mounted in Krebs solution in isolated tissue baths after the methods of Couture et al. (Couture R. et al. (1981), Can. J. Physiol. Pharmacol., 59, 957-964; and Couture R. et al., (1982), Pharmacol., 24, 230-242). The activity of the compound V was assessed from the effect on the spontaneous contractile responses generated by this tissue.

Regarding `CCCC[C@H](NC(=O)[C@H](CCC(N)=O)NC(=O)[C@@H](N)CCCCN)C(=O)N[C@@H](C)C(=O)N[C@@H](CC(C)C)C(=O)N[C@@H](CCCCN)C(N)=O` [Example 4, H-Lys-Gln-Nle-Ala-Leu-Lys-NH2.Acetate] (H-KQ[Nle]ALK-NH2), the “acid disposal (output pH compared to control)” value in experiment [1] (30 nmol/kg/h i.v. infusion, input pH 2.5 on first pass) is reported as “significant increase”; in experiment [1] (150 nmol/kg/h i.v. infusion, input pH 3 and 2.5 on first pass and input pH 2.5 on second pass) it was “significant increase”.
Take `CCCC[C@H](NC(=O)[C@H](CCC(N)=O)NC(=O)[C@@H](N)CCCCN)C(=O)N[C@@H](C)C(=O)N[C@H](C(=O)N[C@@H](CCCCN)C(N)=O)C(C)C` [V, H-Lys-Gln-Nle-Ala-Val-Lys-NH2] (H-KQ[Nle]AVK-NH2): the “action on the spontaneous motility of the proximal colon preparation” value in experiment [2] is “active”. In experiment [3], the “ED50, effect on spontaneous contractile responses” value is recorded as 10^-5 M.
